Measured values from article PMC6918900, “Concentration-Dependent Activity of Hydromethylthionine on Cognitive Decline and Brain Atrophy in Mild to Moderate Alzheimer’s Disease” (Journal of Alzheimer's Disease, 2019).

Legend:
Format in all cases: in vivo, human
[1] = system: patients with mild to moderate Alzheimer's disease; experiment: ADAS-cog11 change over 65 weeks by plasma exposure; conditions: for ADAS-cog Difference ± SEM: split by 8 mg/day Cmax,ss median
Text: (§1) Pharmacokinetic analyses were undertaken using plasma concentration data from patients who participated in either of two completed Phase III trials which have been described previously [[35, 36]]. In brief, the first (TRx-237-015) was a 15-month study which recruited 890 patients from 115 sites across 16 countries in EU, North America, Asia, and Russia. Patients had to be <90 years of age and have a diagnosis of mild to moderate probable AD according to National Institute of Aging (NIA) and Alzheimer’s Association (AA) criteria and a Mini-Mental State Examination (MMSE) score of 14–26 inclusive and with a Clinical Dementia Rating (CDR) total score of 1 or 2. The second study (TRx-237-005) was an 18-month trial which recruited 800 patients from 108 sites in Canada, United States, Australia, and Europe. Patients had to meet the same age and diagnosis criteria, except that they were required to have a MMSE score of 20–26 inclusive and a CDR total score of 0.5 or 1.0. Concomitant use of AChEIs or memantine (or both) was permitted in both studies provided this was at a stable dose for at least 18 weeks before randomization. Concomitant use of serotonergic antidepressant, antipsychotic (except clozapine or olanzapine), and sedative medications was also permitted at stable doses where clinically feasible. Patients were randomly assigned to receive LMTM at doses of 250, 150, or 8 mg/day in Study 015 and doses of 200 or 8 mg/day in Study TRx-237-005. Randomization in both studies was stratified according to geographical region, use of AD-labelled co-medications, and severity of AD. The co-primary outcomes in both studies were the Alzheimer’s Disease Assessment Scale–cognitive subscale, 11-item version (ADAS-cog11) and the Alzheimer’s Disease Co-operative Study–Activities of Daily Living, 23-item version (ADCS-ADL23) scale measured at baseline and every 3 months. MRI scans were undertaken at screening or baseline and at 3-month intervals. MRI acquisition protocol and parameters were standardized across sites and all data were centrally collected, quality-controlled, and analyzed blind by an imaging core lab (Bioclinica). Volumetric data were used to measure changes in whole brain volume (WBV, which provides a measure of the volume of grey and white matter), lateral ventricular volume (LVV), and other regional volumes including hippocampus, although only the global measures are reported in the present study. Baseline volumes were assessed using FreeSurfer 5.3, and volume change was assessed using Boundary Shift Integral and Tensor Based Morphometry for regional structures. Full details and study protocols for these two trials are available [[35, 36]].
The exposure-response analyses were conducted independently by ICPD and verified by TauRx. As a first step in the analysis, the concentration-response data were reviewed for ADAS-cog11 decline at week 65 in all patients receiving LMTM at a dose of 8 mg/day using a sigmoid Emax (maximum response) model not requiring assumptions regarding exposure subgroups. The model was fitted using covariates geographical region, CDR at baseline, co-medication status, and baseline ADAS-cog11. A 90% bootstrap confidence interval was also calculated.
(§2) Having shown a concentration-dependent response for cognitive decline, a mixed-effects model for repeated measures analysis was used to characterize further the relationship between each efficacy endpoint and parent MT plasma exposure (steady state Cmax,ss) according to the following formula: pharmacological activity∼plasma-level×visit+co-medication-status×visit+co-medication-status×plasma-level+geographical-region+CDR-at-baseline+baseline-score×visit
The following terms were categorical variables in the models: plasma exposure (Cmax,ss) (7 levels), visit (5 levels), co-medication status with AD drugs (2 levels), geographical region (2 levels), and CDR at baseline (3 levels). […]

[2] = system: patients with mild to moderate Alzheimer's disease; experiment: MRI lateral ventricular volume (LVV) change over 65 weeks by plasma exposure; conditions: for LVV Difference ± SEM: split by 8 mg/day Cmax,ss median
Text: as §1, §2
(§3) The following terms were categorical variables in the models: plasma exposure (Cmax,ss) (7 levels), visit (5 levels), co-medication status with AD drugs (2 levels), geographical region (2 levels), and CDR at baseline (3 levels). For the longitudinal analyses, plasma level was described by two levels (above or below threshold).

[3] = system: patients with mild to moderate Alzheimer's disease; experiment: Hill equation concentration-response analysis (ADAS-cog11 and WBV)
Text: In addition to the exposure-response analyses described above, a further standard pharmacological concentration-response analysis was undertaken using the Hill equation [40] applied to the ADAS-cog11 and whole brain volume data to characterize the overall response profile quantitatively and to investigate the lower concentration limit of the treatment effect. The Hill equation was applied under the assumption of non-cooperativity and was applied with an additional linear term to permit trends occurring at high concentrations to be included in the model. […] This was fitted separately for LMTM added to approved symptomatic treatments and for those who took the drug as monotherapy, with parameters estimated using a non-linear least squares estimator.
In order to relate Cmax,ss values to theoretical doses, a linear model was fitted to the mean plasma concentrations at the 8, 150, 200 and 250 mg/day doses: estimated dose=22.22×(Cmax, ss-0.016) where dose is in mg/day and Cmax,ss is ng/ml units.

[4] = system: patients with mild to moderate Alzheimer's disease; experiment: MRI whole brain volume (WBV) change over 65 weeks by plasma exposure; conditions: for WBV Difference ± SEM: split by 8 mg/day Cmax,ss median
Text: as §1, §2, §3

[5] = LMTM 8 mg/day as add-on therapy, Cmax,ss above vs below 0.373 ng/ml
[6] = LMTM 8 mg/day as monotherapy, Cmax,ss above vs below 0.373 ng/ml
[7] = LMTM 8 mg/day, low Cmax add-on versus high Cmax monotherapy
[8] = all patients, high vs low exposure split by Cmax,ss 0.373 ng/ml, 65 weeks
[9] = patients receiving LMTM 8 mg/day, split by Cmax,ss 0.373 ng/ml, 65 weeks

CN(C)c1ccc2c(c1)Sc1cc(N(C)C)ccc1N2 [LMTM, leuco-methylthioninium bis(hydromethanesulphonate)]
ADAS-cog11 Difference±SEM in change from baseline [1, 5]: –3.52±0.78
ADAS-cog11 Difference±SEM in change from baseline [1, 6]: –2.60±1.16
ADAS-cog Difference ± SEM ([1]; LMTM 8 mg/day as monotherapy): -2.75 ± 1.09
ADAS-cog11 Difference±SEM in change from baseline [1, 7]: –7.53±1.22
ADAS-cog11 Difference±SEM in change from baseline [1, 8]: –2.66±0.69
ADAS-cog Difference ± SEM ([1]; all patients): -1.91 ± 0.59
ADAS-cog11 Difference±SEM in change from baseline [1, 9]: –3.41±0.76
LVV Difference±SEM in change from baseline [2, 5]: –1.81±0.39 cm^3
LVV Difference±SEM in change from baseline [2, 6]: –1.60±0.46 cm^3
LVV Difference ± SEM ([2]; LMTM 8 mg/day as monotherapy): -0.82 ± 0.44 cm3
LVV Difference±SEM in change from baseline [2, 7]: –3.15±0.62 cm^3
LVV Difference±SEM in change from baseline [2, 8]: –1.52±0.34 cm^3
LVV Difference ± SEM ([2]; all patients): -0.80 ± 0.30 cm3
LVV Difference±SEM in change from baseline [2, 9]: –1.76±0.38 cm^3
maximum predicted pharmacological activity as add-on therapy relative to monotherapy ([3]; Hill equation analysis): about half
plasma concentrations at which treatment effects reach a plateau ([3]; Hill equation estimates): 0.9 to 4.1 ng/mL
theoretical doses corresponding to the plateau ([3]; Hill equation estimates): 16 to 80 mg/day
lower limit of drug activity (plasma Cmax,ss) ([3]; monotherapy and add-on therapy, cognitive decline and whole brain atrophy): approximately 0.29 ng/ml
WBV Difference±SEM in change from baseline [4, 5]: 4.69±1.21 cm^3
WBV Difference ± SEM ([4]; LMTM 8 mg/day as add-on therapy): 4.02 ± 1.17 cm3
WBV Difference±SEM in change from baseline [4, 6]: 2.76±1.66 cm^3
WBV Difference ± SEM ([4]; LMTM 8 mg/day as monotherapy): 1.07 ± 1.58 cm3
WBV Difference±SEM in change from baseline [4, 7]: 11.54±1.87 cm^3
WBV Difference±SEM in change from baseline [4, 8]: 3.55±1.10 cm^3
WBV Difference ± SEM ([4]; all patients): 2.47 ± 0.92 cm3
WBV Difference±SEM in change from baseline [4, 9]: 4.39±1.18 cm^3
